From patent US10947260B2, “Phosphinolactone derivatives and pharmaceutical uses thereof” (INSTITUT NATIONAL DE LA SANTE ET DE LA RECHERCHE MEDICALE …, priority 2016, dated 2021)

Experiments:
[1] = system: APPSwe mice; assay: Spatial learning in pool, APPSwe mice; format: in vivo
Experimental: FIG. 9: Spatial learning in pool (a-c) and object recognition (d-f) for APPSwe mice after 2-month treatment with compound 3b. Pool: acquisition profiles of WT mice treated with V and 3b (2 mg/kg) (a) or APPSwe mice (b). (c) Presence in training quadrant (T) and mean in the other quadrants (o) during trial test performed 48 h after the last training session. Friedman non-parametric ANOVA with repeated measures: Fr=21.7, p<0.001 for the group WT/V, Fr=21.8, p<0.001 for the group WT/3b at (a); Fr=13.0, p<0.05 for group APPSwe/V, Fr=12.2, p<0.05 for group APPSwe/3b at (b). Object recognition: Number of contacts with the objects during sessions 2 and 3 (d) and preferences for object at position 2 computed as contacts (e) or contact time (f). ^∘ p<0.05, ^∘∘ p<0.01 compared with chance level: 15 s at (c), 50% at (e, f), One Sample t-test. ^$ p<0.05, ^$$ p<0.01, ^$$$ p<0.001 compared with the mean of the other quadrants (o) at (c). *p<0.05 compared with group WT/V at (d).
FIG. 11: Spatial learning in pool (a-c) and object recognition (d-f) for APPSwe mice after 2-month treatment with compound 3c. Pool: acquisition profiles of WT mice treated with V and 3c (2 mg/kg) (a) or APPSwe mice (b). (c) Presence in training quadrant (T) and mean in the other quadrants (o) during the trial test performed 48 h after the last training session. Friedman non-parametric ANOVA with repeated measures: Fr=20.7, p<0.001 for group WT/V, Fr=17.5, p<0.001 for group WT/3c at (a); Fr=11.4, p<0.05 for group APPSwe/V, Fr=13.6, p<0.01 for group APPSwe/3b at (b). […]
The pool was a circular water chamber (diameter 140 cm, height 40 cm). […] Swims could be recorded using Videotrack® ViewPoint software, (Champagne-au-Mont-d'Or, France), with trajectories analysed for time and distance. […]
Acquisition phase: this consisted of 3 swims per day for 5 days with an interval of 20 min. […] Swim latency was measured. […] The median of swim times was calculated for each day and expressed for the experimental group as a mean±SEM.
Recall phase: a trial test was conducted […] after the last acquisition session. […] The session was monitored by video and the time spent in the training quadrant (where the platform had been placed) was measured.
After 2-month treatment, the mice were examined with a complex long-term spatial learning test, the locating of an invisible platform in a circular pool 1.5 m in diameter, followed by the object recognition test. […] 48 h after the last acquisition session, the platform was withdrawn from the pool and the time spent in each of the quadrants of the pool was analysed. […]

[2] = system: mice treated with Aβ25-35; assay: Spontaneous alternation in the Y-maze, Aβ25-35 amyloid toxicity model; format: in vivo; conditions: for active dose (neuroprotective effects): non-transgenic AD model, ICV Aβ25-35 in mice
Experimental: Male mice (RjOrl:SWISS) from Janvier laboratories (Le Genest-Saint-Isle, France), aged 7-9 weeks and weighing 32±2 g were used for this study. The animals were grouped in plastic cages with free access to the […] and water, in a regulated environment (23±1° C., humidity 40-60%, 12 h light/dark cycle).
The compounds were solubilized in physiological saline solution (0.9% NaCl) or in dimethylsulfoxide (DMSO) 10% in the saline solution and administered via intraperitoneal route (IP) in a volume of 100 μl per 20 g body weight.
The amyloid-β[25-35] peptide (Aβ25-35) and control peptide (Sc.Aβ) were obtained from Genepep (Saint-Jean-de-Vedas, France). They were solubilized in injectable distilled water at a concentration of 3 mg/ml and stored at −20° C. Before injection, the peptides were incubated at 37° C. for 4 days, which enabled the Aβ25-35 peptide but not the Sc.Aβ, to form oligomers. They were administered via intracerebroventricular route (ICV). The animals were anesthetized by inhaling 2.5% isoflurane (TEM) and were given 3 μl of peptide solution via direct ICV route (Haley and McCormick's method). For injection a 10 μl Hamilton micro-syringe was used at a flow rate of 1 μl/min.
The animals were tested for spontaneous alternation performance in a Y-maze, an index of spatial working memory. The Y-maze was in grey PVC. Each arm was 40 cm long, 13 cm high, 3 cm wide at the base and 10 cm wide in the upper part, and converging at an equal angle. Each mouse was placed at one end of an arm and was able to move freely through the maze during an 8-min session. The series of arm entries, including any returns in the same arm were visually analysed. Alternation is defined as being consecutive entries in three different arms. The maximum number of alternations is therefore the total number of arm entries less two, and alternation percentage is calculated as (actual alternations/maximum possible alternations)×100. The parameters comprise the alternation percentage (memory index) and the total number of arm entries (exploratory index).
[…] After one week, the animals were tested for behavioural performance, then sacrificed and the brain dissected for biochemical analyses.
On Day 7, after the injections of 3b and amyloid peptide, the mice were tested for their ability to alternate in the Y-maze, a spatial working memory test. […] The mice were then tested for passive avoidance response, a long-term non-spatial memory test. with training on Day 8 and recall on Day 9 after the injections (FIG. 1c).

CC1(C)COP(=O)(c2cccc(Cl)c2)C(C)(C)N1 (racemic) [Compound 3b, (±)-2-(3-Chlorophenyl)-2-oxo-3,3,5,5-tetramethyl-[1,4,2]-oxazaphosphinane]
spatial performance of WT mice at trial test ([1]; 2 mg/kg/j IP): decrease is noted in spatial performance | active dose (neuroprotective effects) ([2]; IP): 0.7 mg/kg | minimum active dose ([2]; dose-dependent experiments, Aβ25-35 model, IP): 0.7 mg/kg

CC1(C)COP(=O)(c2ccc(Cl)cc2)C(C)(C)N1 (racemic) [Compound 3c, (±)-2-(4-Chlorophenyl)-2-oxo-3,3,5,5-tetramethyl-[1,4,2]-oxazaphosphinane]
spatial performance of WT mice at trial test ([1]; 1 mg/kg/d): decrease is noted in spatial performance | pool acquisition profile, APPSwe animals ([1]; 1 mg/kg/d, 2-month treatment): did not affect the acquisition profile | presence in the training quadrant at trial test, APPSwe mice ([1]; 1 mg/kg/d, 48 h after last training): significantly restored preferred presence in the training quadrant | spontaneous alternation deficit induced by Aβ25-35 (Y-maze) ([2]; 0.3 mg/kg IP (range tested 0.03-0.7; only this dose efficient), Day 7): significantly prevents spontaneous alternation deficit | active dose (neuroprotective effects) ([2]; IP): 0.3 mg/kg
